Experimental data as given in patent publication US20260207589A1, “Combination of Talazoparib and Enzalutamide in the Treatment of Metastatic Castration-Resistant Prostate Cancer” (Pfizer Inc., priority 2022, published 2026).

Legend:
[1] = tested on: patients with mCRPC with HRR gene alterations; test: TALAPRO-2 (NCT03395197) Phase 3, Part 2, DDR/HRR-deficient cohort (Cohort 2): efficacy; assay type: in vivo, human
Description: In one embodiment, the increase in survival is measured by any of the following: progression free survival (PFS), radiographic PFS (rPFS), and overall survival (OS). PFS, rPFS and OS are clinically meaningful endpoints for measuring an increase in survival for patients treated with the combination of the present invention. […] OS is the length of time from either the date of diagnosis or the start of treatment for a disease, such as cancer, that patients diagnosed with the disease are still alive. In a clinical trial, measuring the PFS and OS are ways to see how well a new treatment works. For purposes of the clinical trial described here, rPFS refers to the time from the date of randomization to first objective evidence of radiographic progression assessed in soft tissue per Response Evaluation Criteria in Solid Tumors version 1.1 (RECIST 1.1) or in bone (upon subsequent confirmation) per Prostate Cancer Working Group (PCWG3) guidelines by Blinded Independent Central Review (BICR), or death, whichever occurs first. For purposes of the clinical trial described here, OS refers to the time from the date of randomization to death due to any cause.
This was an international, Phase 3, randomized, double-blind, two-part study for mCRPC patients, TALAPRO-2 (NCT03395197).
Part 2 was randomized, double-blind, and placebo-controlled and evaluated the efficacy and safety of talazoparib in combination with enzalutamide compared with placebo in combination with enzalutamide. From February 2019 to January 2022, 399 patients (169 from Cohort 1) were randomized 1:1 to receive either talazoparib or matching placebo in combination with open-label enzalutamide once daily. Randomization was stratified by prior novel hormonal therapy or taxane-based chemotherapy, e.g., abiraterone, orteronel, or docetaxel for castration-sensitive prostate cancer (yes/no) and DDR mutational status, also referred to as, homologous recombination repair gene alteration status (deficient vs. non deficient/unknown). Stratification factors were specified by the investigator, and recorded in the interactive web response system (IWRS) before randomization and used for the stratified analysis of the primary efficacy endpoint. However, as the IWRS grouped non-deficient and unknown status, a secondary stratified analysis based on homologous recombination repair gene alteration status derived from the clinical database was also performed and used to identify the non-deficient subpopulation.
Genomic screening to identify alterations in DDR genes was optional for patients in Part 1, but it was required for randomization in Part 2. Mutational status was determined by testing for the presence of mutations in defined DDR genes likely to sensitize to PARP inhibition using next generation sequencing (NGS) based gene panel test. Prior to randomization, patients consented to provide solid tumor tissue (de novo or archival) and/or blood-based samples, which were prospectively assessed for homologous recombination repair (HRR) gene alterations (BRCA1, BRCA2, PALB2, ATM, ATR, CHEK2, FANCA, RAD51C, NBN, MLH1, MRE11A, CDK12) using FoundationOne® CDx and/or FoundationOneLiquid® CDx. […] One patient was enrolled based on ctDNA results only. For exploratory analysis, available blood-based samples (not collected in China) were retrospectively tested using FoundationOneLiquid® CDx to determine the status of patients with a prospectively-assessed status of unknown.

[2] = tested on: patients with mCRPC with HRR gene alterations; conditions: male, human, in vivo
[3] = BICR, measurable soft tissue disease
[4] = DDR-deficient population, overall
[5] = Non-BRCAm HRRm incl. 4 patients without HRR gene mutations (N = 129 vs 115)

## CNC(=O)c1ccc(N2C(=S)N(c3ccc(C#N)c(C(F)(F)F)c3)C(=O)C2(C)C)cc1F [Placebo + Enzalutamide]
[1]; [3]
  CR rate: 18.5%
  PD rate: 20.0%
  PR rate: 21.5%
[1]; BRCA1/2 mutations subgroup
  rPFS events by BICR: 54 events
[1]; BRCAm (N = 71 vs 84)
  rPFS, Number of events: 54 (64) n (%)
[1]; DDR-deficient population
  Median PFS2: 28.1 months
  Median investigator-assessed rPFS: 16.9 months
  Median time to use of cytotoxic chemotherapy: NE/NR
  PFS2 events: 61 events
  PSA response rate (decline from baseline PSA by at least 50%, confirmed): 63.1%
  Time to cytotoxic chemotherapy, events: 65 events
[1]; [4]
  Median rPFS by BICR: 13.8 months
  rPFS events by BICR: 104 events
[1]; DDR-deficient population, interim
  Median OS: 33.7 months
[1]; [5]
  rPFS, Median months (95% CI): 16.7 (13.8, 27.7) months
  rPFS, Number of events: 50 (43) n (%)
[1]; gene subgroup: ATM Cluster
  rPFS by BICR, Median: 27.7 mo
[1]; gene subgroup: All HRR-deficient
  rPFS by BICR, Median: 13.8 mo
[1]; gene subgroup: BRCA Cluster
  rPFS by BICR, Median: 11.0 mo
[1]; gene subgroup: CDK12 Cluster
  rPFS by BICR, Median: 13.8 mo
[1]; gene subgroup: Only ATM
  rPFS by BICR, Median: 27.7 mo
[1]; gene subgroup: Only BRCA1
  rPFS by BICR, Median: 11.7 mo
[1]; gene subgroup: Only BRCA2
  rPFS by BICR, Median: 11.0 mo
[1]; gene subgroup: Only CDK12
  rPFS by BICR, Median: 13.8 mo
[1]; gene subgroup: Only PALB2
  rPFS by BICR, Median: 8.6 mo
[1]; gene subgroup: PALB2 Cluster
  rPFS by BICR, Median: 8.3 mo
[1]; interim OS analysis, 24% maturity overall
  patients who had died: 26.6%
[1]; interim OS analysis, 96 deaths
  OS events (deaths): 53 events
[1]; non-BRCA1/2 mutations subgroup
  Median OS (printed: Median rPFS): 33.7 months
  rPFS events by BICR: 50 events
[1]; non-BRCA1/2 mutations subgroup, N=240
  Median rPFS by BICR: 16.7 months
[1]; patients with measurable soft tissue disease at baseline
  Objective response rate by BICR (RECIST 1.1): 40.0%
[2]
  Patients with Grade 3 or higher TRAEs: 28 (14) n (%)
  Patients with any TRAEs: 144 (72.4) n (%)
